system: not listed separately; assay: Inhibition of SARS coronavirus PLpro residues 1541-1855 expressed in Escherichia coli; set-up: species or system Severe acute respiratory syndrome-related coronavirus; conditions: not given

| SMILES | IC50 |
| --- | --- |
| C[C@@H](NC(=O)c1ccccc1O)c1ccc2ccccc2c1 | Not Active |
| C[C@@H](NC(=O)c1ccc(NC(=O)OC(C)(C)C)cc1)c1ccc2ccccc2c1 | Not Active |
| CCC(NC(=O)c1ccccc1C)c1ccc2ccccc2c1 (racemic) | Not Active |
| Cc1ccccc1C(=O)NC(c1ccccc1)c1ccc2ccccc2c1 (racemic) | Not Active |

system: SARS-CoV; assay: Antiviral activity against SARS coronavirus in african green monkey Vero E6 cells assessed as inhibition of replication after 48 hrs; assay type: functional, organism-based, Severe acute respiratory syndrome-related coronavirus; conditions: Severe acute respiratory syndrome-related coronavirus, Vero, 48 h; read-out: EC50

| SMILES | EC50 |
| --- | --- |
| CNCc1ccc(C)c(C(=O)N[C@H](C)c2cccc3ccccc23)c1 | 5.2 µM |
| Cc1ccc(CN)cc1C(=O)N[C@H](C)c1cccc2ccccc12 | 6 µM |

same assay, conditions: vero

| SMILES | EC50 |
| --- | --- |
| Cc1ccc(CNC(=O)OC(C)(C)C)cc1C(=O)N[C@H](C)c1cccc2ccccc12 | Not Active |
| Cc1ccccc1C(=O)N[C@H](C)c1ccc2ccccc2c1 | Not Active |
| Cc1ccc(N)cc1C(=O)NC(C)(C)c1cccc2ccccc12 | Not Active |
| Cc1cccc(C(=O)N[C@H](C)c2ccc3ccccc3c2)c1 | Not Active |
| Cc1ccccc1C(=O)NC(C)c1ccc2ccccc2c1 (racemic) | Not Active |
